Patent EP3910064A1, “PROCESS OF OBTAINING A PHLOROTANNIN-ENRICHED EXTRACT HAVING ANTI-ENZYMATIC ACTION FOR USE IN DERMATOLOGY” (Instituto Politécnico De Leiria, priority 2020, dated 2021)

Target: collagenase
Experiment: Collagenase inhibition (analytical kit)
Assay type: biochemical
Conditions: confidence interval in parentheses
Excerpt: Table 2 - Inhibitory effect (IC50) of the different extracts obtained based on the interval of concentrations tested on the enzymes collagenase and elastase.

## O=C(O[C@@H]1Cc2c(O)cc(O)cc2O[C@@H]1c1cc(O)c(O)c(O)c1)c1cc(O)c(O)c(O)c1 [Epigallocatechin gallate]
  IC50 Collagenase: 4.8 (4.10-5.50) µg/mL
